The text below walks through data of patent US8168673B2, “Compounds having CRTH2 antagonist activity” (Oxagen Limited, priority 2008, dated 2012).

As usually defined, the Ki is the dissociation constant of the complex between target and ligand, obtained from inhibition or displacement. Low values mean tighter binding, high ones weaker binding. As usually defined, the IC50 is the concentration at which inhibition is half-maximal.

Experiment [1] concerns the target T1, CRTH2 Receptor (Homo sapiens, UniProt Q9Y5Y4).
T1 construct: expressed in transfected cells; membranes
T1 sequence (Q9Y5Y4 1-395): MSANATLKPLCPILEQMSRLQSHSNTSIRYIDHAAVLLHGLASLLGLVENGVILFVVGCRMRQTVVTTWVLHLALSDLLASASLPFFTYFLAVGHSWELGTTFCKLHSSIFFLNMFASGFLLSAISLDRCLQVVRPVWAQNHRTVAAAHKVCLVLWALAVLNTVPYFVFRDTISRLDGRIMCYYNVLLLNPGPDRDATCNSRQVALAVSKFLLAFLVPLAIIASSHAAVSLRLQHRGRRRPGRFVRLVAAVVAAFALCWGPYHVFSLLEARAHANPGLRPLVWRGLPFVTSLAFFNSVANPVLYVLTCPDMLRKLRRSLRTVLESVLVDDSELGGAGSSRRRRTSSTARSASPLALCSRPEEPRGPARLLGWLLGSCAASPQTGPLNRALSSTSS
In words: Radioligand binding assay, [3H]PGD2 on CHO/CRTH2 cell membranes. The conditions noted are these: [3H]PGD2 competition. As to the method:
Chinese Hamster Ovary cells were transfected with CRTH2 or DP receptors (CHO/CRTH2 and CHO/DP) and were maintained in culture in a humidified atmosphere at 37° C. (5% CO2) in Minimum Essential Medium (MEM) supplemented with 10% foetal bovine serum, 2 mM glutamine, and 1 mg ml^−1 active G418. The cells were passaged every 2-3 days. For radioligand binding assay, cells were prepared in triple-layer flasks or in 175 cm^2 square flasks (for membrane preparation.
Membranes were prepared either from CHO/CRTH2 and CHO/DP cells, or from platelets (as a source of TP receptors). CHO cells grown to confluency were washed with PBS and detached using a Versene solution (15 ml per flask). When the cells were grown in 175 cm^2 square flask, they were collected by scrapping in PBS. The cell suspensions were centrifuged (1,700 rpm, 10 min, 4° C.) and resuspended in 15 ml of buffer (1×HBSS, supplemented with 10 mM HEPES, pH 7.3). Cell suspensions were then homogenised using an Ultra Turrax at setting 4-6 for 20 s. The homogenate was centrifuged at 1,700 rpm for 10 min and the supernatant was collected and centrifuged at 20,000 rpm for 1 h at 4° C. The resulting pellet was resuspended in buffer and stored at −80° C. in aliquots of 200-500 μl. The protein concentration was determined by the method of Bradford (1976), using bovine serum albumin as standard. The platelets were washed by centrifugation at 600×g for 10 min and resuspended in ice-cold assay buffer (10 mM Tris-HCl, pH 7.4, 5 mM Glucose, 120 mM NaCl, 10 μM indomethacin) and directly centrifuged at 20,000 rpm for 30 min at 4° C. The resulting pellet was treated as described above.
[^3H]PGD2 (160 Ci/mmol) binding experiments were performed on membranes prepared as described above. Assays were performed in a final volume of 100 μl of buffer (1×HBSS/HEPES 10 mM, pH 7.3). Cell membranes (15 μg) were preincubated at room temperature with varying concentration of competing ligand for 15 min. [^3H]PGD2 was then added and the incubation continued for a further one hour at room temperature. The reaction was terminated by the addition of 200 μl ice-cold assay buffer to each well, followed by rapid filtration through Whatman GF/B glass fibre filters using a Unifilter Cell harvester (PerkinElmer Life Sciences) and six washes of 300 μl of ice-cold buffer. The Unifilter plates were dried at room temperature for at least 1 h and the radioactivity retained on the filters was determined on a Beta Trilux counter (PerkinElmer Life Sciences), following addition of 40 μl of Optiphase Hi-Safe 3 (Wallac) liquid scintillation. Non specific binding was defined in the presence of 10 μM unlabelled PGD2. Assays were performed in duplicate.

The target of experiment [2] is T1, CRTH2 Receptor. Described as above. The following applies: summary statement on Table 1.
Experiment [3] has as its system PGD2 induced eosinophil shape change. In words: Human whole blood eosinophil shape change assay. Format: cell-based. The conditions noted are these: for IC50: Eosinophil, human whole blood, 10 nM PGD2, read-out: IC50 Values for the Effect of Test Compounds on 10 nM PGD2-induced Eosinophil Shape Change; for activity in whole blood, in words: summary statement on Table 2. As to the method:
Compounds 1 to 9 were assayed for their effect on PGD2 induced eosinophil shape change.
Compounds (1 μl, 200× final concentration) were added directly to 200 μl whole blood, mixed well and incubated for 15 min, 37° C., 5% CO2. After this time, cell shape was fixed by addition of 300 μl Cytofix™ buffer (BD Biosciences), 15 min on ice. 10 ml RBC lysis buffer was added to the fixed cells, incubated 5 min, at room temperature and centrifuged, 300×g for 5 min. Supernatant (containing lysed red cells) was removed and the lysis step was repeated. Leukocytes were resuspended in 250 μl RPMI/10% FCS and shape change analysed by FACS. Eosinophils were gated out based on their autofluorescence and 2000 eosinophil events were counted per sample. Data were analysed in triplicate.

`Cc1c(Cc2ccccc2S(=O)(=O)C2CCCC2)c2cc(F)ccc2n1CC(=O)O` [Compound 3, 2-(3-(2-(Cyclopentylsulfonyl)benzyl)-5-fluoro-2-methyl-1H-indol-1-yl)acetic Acid]: the Ki on CRTH2 Receptor [1] stood at 0.2 nM. Further, the “intrinsic activity (CRTH2 antagonist), in words” value (from here on “intrinsic activity”) at CRTH2 Receptor [2] was “high intrinsic activity”. Further, in experiment [3], the IC50 stood at 7 nM and the “activity in whole blood, in words” value is “activity is maintained in whole blood”.

On CRTH2 Receptor [1], `Cc1c(Cc2ccc(S(=O)(=O)C3CCCC3)cc2)c2cc(F)ccc2n1CC(=O)O` [Compound 7, 2-(3-(4-(Cyclopentylsulfonyl)benzyl)-5-fluoro-2-methyl-1H-indol-1-yl)acetic Acid] came in with a Ki of 5 nM. Besides, in experiment [3], the IC50 turned out to be 44 nM.

In the case of `Cc1c(Cc2ccc(S(=O)(=O)C3CCCCC3)cc2)c2cc(F)ccc2n1CC(=O)O` [Compound 6, 2-(3-(4-(Cyclohexylsulfonyl)benzyl)-5-fluoro-2-methyl-1H-indol-1-yl)acetic Acid], at CRTH2 Receptor [1], the Ki was 2 nM. Moreover, the IC50 in experiment [3] is 85 nM.

`Cc1c(Cc2ccccc2S(=O)(=O)N2CCCCC2)c2cc(F)ccc2n1CC(=O)O` [Compound 2, 2-(5-Fluoro-2-methyl-3-(2-(piperidin-1-ylsulfonyl)benzyl)-1H-indol-1-yl)acetic Acid] gave a Ki at CRTH2 Receptor [1] of 0.04 nM. For the same compound, the “intrinsic activity” value on CRTH2 Receptor [2] is “high intrinsic activity”. Besides, in experiment [3], the IC50 is 5 nM and the “activity in whole blood, in words” value was “activity is maintained in whole blood”.

On CRTH2 Receptor [1], `Cc1c(Cc2cccc(S(=O)(=O)N3CCCC3)c2)c2cc(F)ccc2n1CC(=O)O` [Compound 9, 2-(5-Fluoro-2-methyl-3-(3-(pyrrolidin-1-ylsulfonyl)benzyl)-1H-indol-1-yl)acetic Acid] had a Ki of 100 nM.

With `Cc1c(Cc2ccccc2S(=O)(=O)C2CCC2)c2cc(F)ccc2n1CC(=O)O` [Compound 8, 2-(3-(2-(Cyclobutylsulfonyl)benzyl)-5-fluoro-2-methyl-1H-indol-1-yl)acetic Acid], on CRTH2 Receptor [1], affinity was put at a Ki of 3 nM. Moreover, in experiment [3], the IC50 was 240 nM.

For the compound `Cc1c(Cc2cccc(S(=O)(=O)N3CCCCC3)c2)c2cc(F)ccc2n1CC(=O)O` [Compound 4, 2-(5-Fluoro-2-methyl-3-(3-(piperidin-1-ylsulfonyl)benzyl)-1H-indol-1-yl)acetic Acid], the Ki at CRTH2 Receptor [1] came to 55 nM.

Take `Cc1c(Cc2ccccc2S(=O)(=O)N2CCCC2)c2cc(F)ccc2n1CC(=O)O` [Compound 5, 2-(5-Fluoro-2-methyl-3-(2-(pyrrolidin-1-ylsulfonyl)benzyl)-1H-indol-1-yl)acetic Acid]: on CRTH2 Receptor [2], the “intrinsic activity” value is “high intrinsic activity”. In addition, in experiment [3], the IC50 was 5 nM and the “activity in whole blood, in words” value was “activity is maintained in whole blood”.

At CRTH2 Receptor [1], `Cc1c(Cc2ccccc2S(=O)(=O)C2CCCCC2)c2cc(F)ccc2n1CC(=O)O` [Compound 1, 2-(3-(2-(Cyclohexylsulfonyl)benzyl)-5-fluoro-2-methyl-1H-indol-1-yl)acetic acid] yielded a Ki of 0.02 nM. For the same compound, the “intrinsic activity” value at CRTH2 Receptor [2] is reported as “high intrinsic activity”. Besides, in experiment [3], the IC50 was 6 nM and the “activity in whole blood, in words” value is listed as “activity is maintained in whole blood”.

`Cc1c(Cc2ccc(S(=O)(=O)N3CCCCC3)cc2)c2cc(F)ccc2n1CC(=O)O` [Compound 10, 2-(5-Fluoro-2-methyl-3-(4-(piperidin-1-ylsulfonyl)benzyl)-1H-indol-1-yl)acetic Acid] returned a Ki on CRTH2 Receptor [1] of 1 nM.
